Laboratory results published in patent US6177438A, “Morphinan derivatives and pharmaceutical use thereof” (priority 1993, dated 2001).
Counter-ions that a name gives are not always drawn. Like-named read-outs stand apart in the source and are kept apart here.

How the values were obtained:
[1] = test system: nerve cells in the region of the hippocampus CA1; assay: Delayed neuronal death protective action (gerbil transient ischemia model, hippocampus CA1 nerve cell count); format: in vivo, gerbils; conditions: s.c.; for No. of Residual Nerve Cells: 30 minutes before ischemia, 1 week after ligation; for Suppression of defluxion of brain nerve cells caused by ischemia / cerebro-neuroprotective activity (in words): gerbils
Procedure: Those compounds that provide protection from and suppress delayed neuronal death described in Example 238 are considered to be promising as preventive and therapeutic agents for ischemic brain disorders, brain nerve cell disorders and dementia, which are problems that the present invention is attempting to solve. The pharmacological activity of the compounds of the present invention was evaluated in the manner below using gerbils for the animal model.
A midline incision was made in gerbils having body weights of 50-70 g under ether anesthesia. Blood flow through the carotid arteries on both sides was interrupted to create an ischemic state by ligating the vessels for 5 minutes. The test compound was administered subcutaneously either 30 minutes or 1 hour prior to ligation ischemia, and the rectal temperature of the animals was controlled to 37±2° C. using a heating pad or heater starting 5 minutes before to 30 minutes after ligation ischemia. 1 week after ligation, 4% neutral buffered formalin was perfused from the heart throughout the body followed by extraction of the brain. After post-fixing the extracted brain in the same solution, the tissue was prepared into sections after embedding in paraffin. The sections were stained with hematoxylin and eosin stain, and the number of nerve cells in the region of the hippocampus CA1 over a width of 1 mm to the left and right was counted. The total number of nerve cells on the right and left sides was then used for evaluation.

[2] = test system: acetic acid-induced writhing in ddy mice; assay: animal or person; format: in vivo, 5 week old ddy mice; conditions: s.c. 15 minutes before acetic acid
Procedure: 5 week old ddy mice were used in this test. After intraperitoneal administration of 0.1 ml of 0.6% aqueous acetic acid per 10 g of body weight, the number of writhing reactions that occurred in 10 minutes starting 10 minutes after administration was evaluated for the indicator. The test drug was administered subcutaneously into the backs of the animals 15 minutes before administration of acetic acid.

[3] = test system: cultured nerve cells (cerebral cortex); conditions: 10 mM glutamic acid, 24 hours
[4] = test system: cultured nerve cells (cerebral cortex); assay: cells; conditions: Rattus norvegicus, Cerebral cortex neuron, 24 h, read-out: ED50 (protection against glutamic acid toxicity)
μ receptor = biological target: T1, μ receptor (Mus musculus, UniProt P42866); assay: Opioid activity test using an extracted mouse vas deferens preparation, Ke with naloxone; parameters: species or system male ddy mouse; conditions: naloxone added
T1 construct: naloxone as mu antagonist (printed 'agonist')
T1 sequence (P42866 whole entry): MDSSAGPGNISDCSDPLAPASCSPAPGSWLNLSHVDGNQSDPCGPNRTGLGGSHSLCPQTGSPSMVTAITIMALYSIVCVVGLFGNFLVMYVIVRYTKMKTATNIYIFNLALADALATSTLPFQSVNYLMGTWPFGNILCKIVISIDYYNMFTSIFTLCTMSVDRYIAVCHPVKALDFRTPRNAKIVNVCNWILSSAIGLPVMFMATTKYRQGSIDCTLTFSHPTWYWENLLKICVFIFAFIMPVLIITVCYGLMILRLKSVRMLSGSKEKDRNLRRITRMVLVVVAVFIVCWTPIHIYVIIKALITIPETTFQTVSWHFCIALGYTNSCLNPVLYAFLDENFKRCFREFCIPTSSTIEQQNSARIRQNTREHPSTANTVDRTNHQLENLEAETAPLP

κ receptor = biological target: T2, κ receptor (Mus musculus, UniProt P33534); assay: Opioid activity test using an extracted mouse vas deferens preparation, Ke with norBNI; parameters: species or system male ddy mouse; conditions: for receptor selectivity of agonist (κ): in words; for Ke, norBNI: κ, norBNI added
T2 construct: from tissue; host or cells: mouse (male ddy) vas deferens
T2 sequence (P33534 whole entry): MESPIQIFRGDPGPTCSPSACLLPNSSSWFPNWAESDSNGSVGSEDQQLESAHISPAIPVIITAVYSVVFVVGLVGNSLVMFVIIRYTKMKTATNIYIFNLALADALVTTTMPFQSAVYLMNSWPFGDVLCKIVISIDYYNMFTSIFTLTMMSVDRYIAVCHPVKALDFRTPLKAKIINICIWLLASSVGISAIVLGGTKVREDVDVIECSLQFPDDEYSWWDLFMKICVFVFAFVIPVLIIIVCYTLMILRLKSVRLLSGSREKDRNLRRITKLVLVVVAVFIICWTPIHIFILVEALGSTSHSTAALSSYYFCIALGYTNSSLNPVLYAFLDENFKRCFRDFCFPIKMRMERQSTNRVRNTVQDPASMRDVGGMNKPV

[5] = test system: extracted mouse vas deferens preparation; assay: Opioid activity test using an extracted mouse vas deferens preparation (suppression of electrically induced contractions); parameters: species or system male ddy mouse; conditions: electrical stimulus 0.1 Hz, 37° C.
In short: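 Male ddY mouse vas deferens in Krebs-Henseleit at 37° C, 5% CO2/95% O2, field-stimulated at 0.1 Hz, 5.0 ms; isometric contractions recorded. After adding naloxone, NTI or norBNI, test compound was added cumulatively after ~20 min; Ke derived from the difference in agonist efficacies.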

δ receptor = biological target: T3, δ receptor (Mus musculus, UniProt P32300); parameters: species or system male ddy mouse; conditions: for Ke, NTI: δ, NTI added
T3 construct: The vas deferens extracted from the animal was suspended in a Magnus tube; from tissue; host or cells: mouse (male ddy) vas deferens
T3 sequence (P32300 whole entry): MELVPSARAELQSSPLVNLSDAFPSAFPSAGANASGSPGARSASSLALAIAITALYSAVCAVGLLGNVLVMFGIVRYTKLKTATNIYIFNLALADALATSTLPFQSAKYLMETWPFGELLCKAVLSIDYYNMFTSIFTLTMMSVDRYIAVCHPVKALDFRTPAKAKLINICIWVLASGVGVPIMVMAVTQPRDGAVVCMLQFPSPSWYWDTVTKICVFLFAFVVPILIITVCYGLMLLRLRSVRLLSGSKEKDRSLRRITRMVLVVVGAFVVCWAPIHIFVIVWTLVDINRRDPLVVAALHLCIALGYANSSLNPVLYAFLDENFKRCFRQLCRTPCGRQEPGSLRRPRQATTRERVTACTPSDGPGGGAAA

[6] = Diuretic action (urine output for 5 hours after physiological saline loading in rats); format: in vivo, male Wistar rats; conditions: for ED (200% urine output) / ED (500% urine output): Rattus norvegicus, sc, 5 hours after saline 20 ml/kg p.o.; for ED (200% urine output): dose giving urine output of 200 (non-dosed group = 100); for ED (500% urine output): dose giving urine output of 500 (non-dosed group = 100)
In short: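 Male Wistar rats (7-8 weeks), water withheld 1 h, bladder emptied, drug given subcutaneously; 30 min later 20 ml/kg saline orally. Urine collected 5 h after saline loading in metabolic cages; ED200 and ED500 are doses giving urine output of 200 and 500 relative to non-dosed group at 100.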

[7] = Mus musculus, sc, read-out: ED50

| SMILES | No. of Residual Nerve Cells ([1]; 0.03 mg/kg) | No. of Residual Nerve Cells ([1]; 0.3 mg/kg) | No. of Residual Nerve Cells ([1]; 3 mg/kg) | Suppression of defluxion of brain nerve cells caused by ischemia / cerebro-neuroprotective activity (in words) [1] | ED50 [2, 7] [µg/kg] | Protective action against cytotoxicity caused by glutamic acid (in words) [3] | EC50 [4] [nM] | Ke, Naloxone (μ receptor) [nM] | receptor selectivity of agonist (κ) (κ receptor) | Ke, norBNI (κ receptor) [nM] | IC50 [5] [nM] | Ke, NTI (δ receptor; mouse vas deferens) [nM] | ED (200% urine output) [6] [µg/kg] | ED (500% urine output) [6] [µg/kg] | Diuretic action (in words) ([6]; s.c., from ED200 values) | receptor selectivity of agonist (δ) (δ receptor; mouse vas deferens, in words) | ED50 [2] [µg/kg] | receptor selectivity of agonist (δ) (δ receptor) |
| --- | --- | --- | --- | --- | --- | --- | --- | --- | --- | --- | --- | --- | --- | --- | --- | --- | --- | --- |
| CC(C)CN(C(=O)Cc1ccc(Cl)c(Cl)c1)[C@H]1CC[C@@]2(O)[C@H]3Cc4ccc(O)c5c4[C@@]2(CCN3CC2CC2)[C@H]1O5 [Compound 51, 17-cyclopropylmethyl-4,5α-epoxy-3,14β-dihydroxy-6α-(N-isobutyl-3,4-dichlorophenylacetoamido)morphinan.cndot.hydrochloride] | 17.8 ± 6.9 | 46.4 ± 15.1 | 203.8 ± 40.1 | significantly suppress defluxion of brain nerve cells caused by ischemia | 190 | clearly demonstrated action that protects nerve cells from cytotoxicity caused by glutamic acid | 30 |  |  |  |  |  |  |  |  |  |  |  |
| CN(C(=O)/C=C/c1cccc([N+](=O)[O-])c1)[C@@H]1CC[C@@]2(O)[C@H]3Cc4ccc(O)c5c4[C@@]2(CCN3CC2CC2)[C@H]1O5 [Compound 104, 17-cyclopropylmethyl-3,14β-dihydroxy-4,5α-epoxy-6β-(N-methyl-3-nitrocinnamamido)morphinan.cndot.tartrate] | 12.0 ± 3.0 | 14.8 ± 1.2 | 106.2 ± 65.6 | significantly suppress defluxion of brain nerve cells caused by ischemia | 17 | clearly demonstrated action that protects nerve cells from cytotoxicity caused by glutamic acid | 5450 | 185 | selective agonists for κ receptors | 1.40 | 0.227 | 89 |  |  |  |  |  |  |
| CN(C(=O)C#Cc1ccccc1)[C@@H]1CC[C@@]2(O)[C@H]3Cc4ccc(O)c5c4[C@@]2(CCN3CC2CC2)[C@H]1O5 [Compound 101, 17-cyclopropylmethyl-3,14β-dihydroxy-4,5α-epoxy-6β-(N-methyl-3-phenylpropiolamido)morphinan.cndot.hydrochloride] |  |  |  |  | 6.6 | clearly demonstrated action that protects nerve cells from cytotoxicity caused by glutamic acid | 12200 | 25.4 | selective agonists for κ receptors | 0.0425 | 0.269 | 31.6 | 8.9 | 226 |  |  |  |  |
| CN(C(=O)/C=C/c1ccccc1)[C@H]1CC[C@@]2(O)[C@H]3Cc4ccc(O)c5c4[C@@]2(CCN3CC2CC2)[C@H]1O5 [Compound 24, 17-cyclopropylmethyl-3,14β-dihydroxy-4,5α-epoxy-6α-(N-methylcinnamamido)morphinan.cndot.hydrochloride] |  |  |  |  | 5.75 | clearly demonstrated action that protects nerve cells from cytotoxicity caused by glutamic acid | 1910 | 16.5 |  | 4.90 | 0.121 | 0.426 | 0.69 | 6.3 | extremely strong diuretic action | selective agonists for δ receptors |  |  |
| CN(C(=O)/C=C/C1CCCCC1)[C@@H]1CC[C@@]2(O)[C@H]3Cc4ccc(O)c5c4[C@@]2(CCN3CC2CC2)[C@H]1O5 [Compound 68, 17-cyclopropylmethyl-3,14β-dihydroxy-4,5α-epoxy-6β-(N-methyl-3-cyclohexylacrylamido)morphinan.cndot.tartrate] |  |  |  |  | 4.2 | clearly demonstrated action that protects nerve cells from cytotoxicity caused by glutamic acid | 1410 | 5710 | selective agonists for κ receptors | 1.08 | 0.457 | 143 | 1.6 | 23.2 |  |  |  |  |
| CCC/C=C/C(=O)N(C)[C@@H]1CC[C@@]2(O)[C@H]3Cc4ccc(O)c5c4[C@@]2(CCN3CC2CC2)[C@H]1O5 [Compound 100, 17-cyclopropylmethyl-3,14β-dihydroxy-4,5α-epoxy-6β-(N-methyl-trans-2-hexenamido)morphinan.cndot.tartrate] |  |  |  |  | 24 | clearly demonstrated action that protects nerve cells from cytotoxicity caused by glutamic acid | 1740 | 1797 | selective agonists for κ receptors | 0.0717 | 0.647 |  | 15.9 | 811 |  |  |  |  |
| CN(C(=O)CCCCCc1ccccc1)[C@H]1CC[C@@]2(O)[C@H]3Cc4ccc(O)c5c4[C@@]2(CCN3CC2CC2)[C@H]1O5 [Compound 36, 17-cyclopropylmethyl-3,14β-dihydroxy-4,5α-epoxy-6α-(N-methyl-6-phenylhexanamido)morphinan.cndot.hydrochloride] | 38.8 ± 19.6 | 85.5 ± 34.9 | 68.0 ± 45.3 | significantly suppress defluxion of brain nerve cells caused by ischemia | 230 | clearly demonstrated action that protects nerve cells from cytotoxicity caused by glutamic acid | 230 |  |  |  |  |  |  |  |  |  |  |  |
| CN(C(=O)/C=C/c1ccccc1)[C@@H]1CC[C@@]2(O)[C@H]3Cc4ccc(O)c5c4[C@@]2(CCN3CC2CC2)[C@H]1O5 [Compound 99, 17-cyclopropylmethyl-3,14β-dihydroxy-4,5α-epoxy-6β-(N-methylcinnararido)morphinan.cndot.hydrochloride] |  |  |  |  |  | clearly demonstrated action that protects nerve cells from cytotoxicity caused by glutamic acid | 15400 | 94.5 | selective agonists for κ receptors | 0.652 | 0.674 |  | 1.1 | 30.9 |  |  | 1.8 |  |
| CN(C(=O)C#Cc1ccccc1)[C@H]1CC[C@@]2(O)[C@H]3Cc4ccc(O)c5c4[C@@]2(CCN3CC2CC2)[C@H]1O5 [Compound 84, 17-cyclopropylmethyl-3,14β-dihydroxy-4,5α-epoxy-6α-(N-methyl-3-phenylpropiolamido)morphinan.cndot.hydrochloride] |  |  |  |  | 5.8 | clearly demonstrated action that protects nerve cells from cytotoxicity caused by glutamic acid | 2700 | 35.4 |  | 5.69 | 2.07 | 0.309 | 2.8 | 46.9 |  |  |  | selective agonists for δ receptors |
